According to patent publication US8658677B2, “Pyridyl-2-methylamino compounds, compositions and uses thereof” (Aria Neurosciences Inc., priority 2011, dated 2014):
“Also recorded” adds a separate entry of the source. Read-outs that look alike come from different tables or passages of the source.

Tests used:
Aβ40 = target: T1, Aβ40 (Homo sapiens, UniProt P05067); assay: Oligomerization assay; type: biochemical
T1 construct: host or cells: chemical solid-phase peptide synthesis (no expression host)
Description: […] monomerized synthetic Aβ40 was incubated in 0.1M Tris pH 7.0, T=37° C. for 8 days in the presence of 0-100 μM concentration of compounds. […] An arrow indicates Aβ monomers clustered in ill developed protofibril. (C) Oligomerization assay. ARN4261 and ARN4224 reduced the amount of Aβ oligomers by 78% and 74%, respectively p<0.001. A compound 69b (GKLVFNmgA) was used as a positive control. 69b is homologous to Aβ sequence 17-21 and contains N-methyl glycine (Nmg), which renders it capable of anti-fibrillization and anti-oligomerization effect. (D) Principle of oligomerization assay. 100 μM Aβ40 was aggregated alone or with the addition of 10 μM of tested compounds [1:10 compound: Ab ratio] for 24 h in conditions promoting oligomers assembly, i.e., DMEM/F-12 medium+0.2% SDS, T=4° C. Prior to SDS-PAGE in non-reducing conditions samples were treated with glutaraldehyde. A strong smear of Aβ oligomers is seen between 37 and 70 KDa markers (arrows) in lane 2, and a dense band below the 25 KDa marker reflects Aβ monomers non-dissociated by 10% polyacrylamide gel. No oligomers above 37 KDa marker are seen in lane 1 containing only Aβ monomers run as a control. […] (E) TEM of Aβ oligomers. […] Yellow arrowhead indicates smaller oligomers.

[1] = Analysis of chemical structure stability; type: physicochemical
Text: This is because of the instability of —C═N— bond. Therefore we have synthesized a reduced version of ARN4261dubbed ARN2966 (2-[(pyridine-2-ylmethyl)-amino]-phenol, MW 200.2 Da, Log P 1.96).

Log P = type: physicochemical
APPSW/PS1dE9 mice [2] = assay: Memory testing: object recognition and 8-armed radial arm maze; type: in vivo; details: 50 mg/kg/day ip, last three weeks of treatment
Description: (§1) Female APPSW/PS1dE9 mice received ARN2966 (n=10) or Vehicle (n=15) from the age of six to ten months. ARN2966 (50 mg/kg/day) was given once a day by intraperitoneal injection. […] After conclusion of the experiments, samples of organs from ARN2966 and Vehicle treated animals were subjected to histopathological evaluation conducted by a veterinary pathologist. […] Signs of mild chronic peritonitis related to repeated daily intraperitoneal compound injection, however, were reported in both groups.
P<0.05, unpaired, two-tailed t-test. […] One session is given per day. […] Starting from day five, vehicle treated APPSW/PS1dE9mice were consistently making more errors than ARN2966 treated APPSW/PS1dE9 and non-Tg littermates. One-way ANOVA p<0.001.
During the last three weeks of treatment, animals were behaviorally tested using object recognition paradigm and the 8-armed radial arm maze, both of which measure memory capability. […] However, vehicle treated APPSW/PS1dE9 mice were incapable of discriminating between familiar and novel objects, as is characteristic of their phenotype.

APP = assay: Acute treatment experiment: brain soluble Aβ40, APP, C99 and C83; type: in vivo, mice; details: five days ip, ARN2966 50 mg/kg/day, Compound E 3 mg/kg/day
Description: Furthermore, we conducted an acute treatment experiment where six months old female APPSW/PS1dE9 mice (n=3/group) were treated for five days with ARN2966 (50 mg/kg/day), Compound E (3 mg/kg/day) or Vehicle injected intraperitoneally. Mice were killed three hours after the last injections. The level of soluble Aβ40 was measured in the brain aliquots following diethylamine (DEA) extraction. It was lower in ARN2966 and Compound E treated groups by 39% (p<0.05) and 60% (p<0.05) comparing to vehicle treated mice, respectively (p<0.05; FIG. 6E).
FIGS. 6.(A, B) ARN2966 treatment reduces load of Aβ plaques (n=10 ARN2966, n=15 Vehicle). (B) Representative photomicrograph of Th-S stained brain sections from vehicle and ARN2966 treated 10 month old, female APPSW/PS1dE9reveal a difference in the load of Aβ plaques. […] (D) Reduced Aβ40 and Aβ42 levels in FA extracted brain homogenate, which represent the total brain content of Aβ peptides in ARN2966 treated animals (ELISA). (E) Reduced soluble Aβ40 level in DEA extracted brain homogenate, of ARN2966 and Compound E treated mice (ELISA). […] Aβ concentrations in (C) (D) and (E) are given per gram of wet brain. All values are given as mean±SEM. Statistical analysis was done using two-tailed unpaired t-test, following confirmation of normal distribution of data using Shapiro-Wilk test.

[3] = Pharmacokinetic characterization including BBB permeability; type: in vivo, CD-1 WT mice; details: for Brain Cmax / Cmax: mean ±SD; for F (fraction dose absorbed): accounted for po and iv dose difference; for half-life: read-out: Plasma t1/2 (converted)
Description: Pharmacokinetic characterization including BBB permeability of ARN2966 was performed in three months old, male CD-1 WT mice, which received a single oral (po; 25 mg/kg) or intravenous (iv; 5 mg/kg) dose of ARN2966 and were sacrificed 0.25, 0.5, 1, 2, 8, and 24 hr later (n=3 per time point). Plasma and brain concentration of ARN2966 were determined using liquid chromatography-mass spectrometry (LC/MS) (Table I). […] 64.2% of its orally administered dose was absorbed from the alimentary tract. […] This is because of the instability of —CH═N— bond. Therefore, we focused on PK/BBB permeability characterization of ARN2966, where —CH═N— bond was reduced to —CH2—NH—.

APPSW/PS1dE9 mice [4] = assay: In vivo toxicity during four-month treatment; details: 50 mg/kg/day ip, age six to ten months
Description: as §1

[5] = male, CD-1, mouse, plasma, IV - 5 mg/kg, mice
[6] = male, CD-1, mouse, plasma, PO - 25 mg/kg, mice

T1 sequence (P05067 672-711): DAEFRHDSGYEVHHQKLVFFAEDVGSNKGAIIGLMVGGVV

With `Oc1ccccc1N=Cc1ccccn1` [ARN4261, 2-(Pyridin-2-ylmethyleneamino)-phenol] the “TEM of Aβ oligomers” value (Aβ40) was “increased number of Aβ monomers and dimers”, the “reduction of the amount of Aβ oligomers” value (Aβ40; 100 μM Aβ40, 10 μM compound, 24 h, DMEM/F-12 + 0.2% SDS, 4° C.) was 78% and the “amount of oligomers on SDS-PAGE” value (Aβ40; 100 μM Aβ40, 10 μM compound, 24 h, lanes 3-5) was “reduced amount of oligomers”. For the same molecule, the chemical structure stability [1] was “prone to self-decomposing” and the “stability in acidic pH” value ([1]; acidic pH) was “easily degradable in acidic pH”.

For `Oc1ccccc1NCc1ccccn1` [ARN2966, 2-[(pyridine-2-ylmethyl)-amino]-phenol], the logP (Log P) was 1.96, the object recognition test (APPSW/PS1dE9 mice [2]) was “spent significantly more time exploring the novel object; also recorded: able to distinguish a novel object from the familiar object” and the “radial arm maze, errors per session” value (APPSW/PS1dE9 mice [2]) was “made fewer errors than vehicle group”. For the same molecule, the “APP, C99 and C83 signal in brain homogenate (western immunoblotting)” value (APP) was “evident reduction of APP, C99, and C83 signal”, the “lowering of soluble Aβ40 (DEA extraction) in brain vs vehicle” value (APP; killed three hours after last injection) was 39% and the “Brain Cmax” value ([3]; IV - 5 mg/kg, mice, 5 mg/kg) was 21.4 µg/kg. The “Brain Cmax” value ([3]; IV - 5 mg/kg, mice, listed as ARN 2966, 5 mg/kg) was 21.4 ± 2.7 µg/kg, the “F (fraction dose absorbed)” value ([3]; PO - 25 mg/kg, 25 mg/kg) was 64.2% and the “F (fraction dose absorbed)” value ([3]; PO - 25 mg/kg, listed as ARN 2966, 25 mg/kg) was 64.20%. For the same molecule, the “Brain Cmax” value ([3]; PO - 25 mg/kg, mice) was 12.5 ± 2.3 µg/kg, the maximal brain concentration ([3]; after iv dosing, 5 mg/kg) was 0.11 µM and the Tmax ([3]; male, CD-1, mouse, brain, IV - 5 mg/kg, mice, read-out: Brain Tmax) was 15 min. It also gave a Tmax ([3]; male, CD-1, mouse, brain, PO - 25 mg/kg, mice, read-out: Brain Tmax) of 30 min, an AUC(0-inf) [3, 5] of 1230 ng·h/mL and a clearance [3, 5] of 67.8 mL/min/kg. It also gave a Cmax [3, 5] of 1030 ± 440 ng/mL, a Tmax ([3]; male, CD-1, mouse, plasma, IV - 5 mg/kg, mice, read-out: Plasma Tmax) of 15 min and a half-life [3, 5] of 368 min. For the same molecule, the Vd ([3]; male, CD-1, mouse, plasma, IV - 5 mg/kg, mice, read-out: Vz) was 36 L/kg, the AUC(0-inf) [3, 6] was 3950 ng·h/mL and the Cmax [3, 6] was 2660 ± 382 ng/mL. The Tmax ([3]; male, CD-1, mouse, plasma, PO - 25 mg/kg, mice, read-out: Plasma Tmax) was 30 min, the half-life [3, 6] was 215 min and the “body weight / weight gain” value (APPSW/PS1dE9 mice [4]) was “proper rate of age related weight gain”. For the same molecule, the “histopathological evaluation of organs” value (APPSW/PS1dE9 mice [4]) was “No signs of ARN2966 toxicity” and the “physical appearance, unprovoked behavior, response to external stimuli” value (APPSW/PS1dE9 mice [4]) was “no noticeable changes in physical appearance, unprovoked behavior or response to external stimuli”.
